Laboratory results published in US12630501B2, “Anti-fibrotic compounds and use thereof” (HADASIT MEDICAL RESEARCH SERVICES AND DEVELOPMENT LTD., priority 2019, dated 2026).
Values joined by “and” are separate entries in the source; they are usually repeats but may differ in a detail not shown here. Equal values may be shown once.

Tests used:
Type in all cases: cell-based, human
FLIP = FLIP protein by Western blot and flow cytometry in IPF-lung myofibroblasts; settings: 16 h
Procedure: (§1) Human lung myofibroblasts Differentiated fibroblasts from IPF-lungs and controls from patient lung biopsies performed for tumor diagnosis were obtained under a protocol detailed in Wallach-Dayan et al., J. Autoimmun. 59: 67-76, 2015. LL 97A (AlMy) (ATCC® CCL-191™)-IPF-lung, and LL 24 (ATCC® CCL-151™)-normal lung fibroblast cell lines were used.
FLIP protein in lung myofibroblasts Standard WB and flow cytometry were performed as described in Cohen et al., Am. J. Respir. Cell Mol. Biol. 40: 231-238, 2009.
(§2) FLIP downregulation from an OD of 1.85 to 0.49 (about 3.5-fold) was detected in WB (FIG. 4F), and a […] from a mean fluorescence intensity (MFI)=10^3 to only 10^1 was detected with flow cytometry (FIG. 4G). Thus, SIRT1-mediated Ku70-deacetylation stabilizes IPF-lung myofibroblast FLIP via Ku70/FLIP complex. This effect of CMH on Ku70 further disrupts Ku70/FLIP complex and destabilizes FLIP in IPF-lung myofibroblasts.
(§3) IPF cell line ATCC-191 (0.5×10^6), were exposed in culture (10% DMEM) to a compound of Formula 6 (1 or 3 μM) vs. 4% DMSO (vehicle) for 16 h. Ku70 immunoprecipitation with subsequent pan-acetyl (FIG. 8A) and immunoblots of Ku70 with anti-Ku70 mAb (FIG. 8B) or FLIP with anti-FLIP mAb (FIG. 8C) were measured. […] IPF-lung myofibroblasts decreased FLIP expression from an OD of 1.00 to 0.51 (about twofold, FIG. 8C).
IPF cell line ATCC-191 (0.5×10^6), were exposed in culture (10% DMEM) to a compound of Formula 12 (1 μM), vs. 4% DMSO (vehicle) for 16 h. Immunoblots of FLIP with anti-FLIP mAb were performed (FIG. 9). […] Thus, the compound of Formula 12 attenuates FLIP stabilization in IPF-lung myofibroblast.

IPF cell line ATCC-191 = experiment: Caspase-3 cleaved vs. uncleaved immunoblot (direct cytotoxicity); settings: 72 h
Procedure: IPF cell line ATCC-191 (0.5×10^6), were exposed in culture (10% DMEM) to a compound of Formula 6 (0.1-30 μM) vs. 4% DMSO (vehicle) for 72 h. Cells were lysed and immunoblots of caspase-3 cleaved vs. uncleaved were performed. […] Lower concentrations of a compound of Formula 6 treated cells even decreased their ratio indicating no toxicity of the analogue at these concentrations.

Ku70 = Ku70 immunoprecipitation with pan-acetyl / Ku70 immunoblot in IPF-lung myofibroblasts
Procedure: as §1
Immunoprecipitation and immunoblotting Standard protocols were performed as described in Golan-Gerstl et al., Am. J. Respir. Cell Mol. Biol. 47: 271-279, 2012.
as §2, §3

Compound: O=C(CCCCOc1ccc2ccccc2c1)NO [Formula 6]
- Decrease of FLIP expression (FLIP; Formula 6 1 or 3 μM): about twofold
- FLIP expression OD (anti-FLIP immunoblot) (FLIP; Formula 6 1 or 3 μM, ATCC-191, vehicle 1.00): 0.51 OD
- Cleaved caspase-3 (IPF cell line ATCC-191; 0.1 μM): 7.5
- Cleaved/Uncleaved caspase-3 (IPF cell line ATCC-191; 0.1 μM): 0.27
- Uncleaved caspase-3 (IPF cell line ATCC-191; 0.1 μM): 27.37
- Cleaved caspase-3 (IPF cell line ATCC-191; 0.3 μM): 11.66
- Cleaved/Uncleaved caspase-3 (IPF cell line ATCC-191; 0.3 μM): 0.18
- Uncleaved caspase-3 (IPF cell line ATCC-191; 0.3 μM): 65.84
- Cleaved caspase-3 (IPF cell line ATCC-191; 1 μM): 27.59
- Cleaved/Uncleaved caspase-3 (IPF cell line ATCC-191; 1 μM): 0.46
- Uncleaved caspase-3 (IPF cell line ATCC-191; 1 μM): 60.57
- Cleaved caspase-3 (IPF cell line ATCC-191; 3 μM): 81.78
- Cleaved/Uncleaved caspase-3 (IPF cell line ATCC-191; 3 μM): 1.10
- Uncleaved caspase-3 (IPF cell line ATCC-191; 3 μM): 74.31
- Cleaved caspase-3 (IPF cell line ATCC-191; 10 μM): 112.38
- Cleaved/Uncleaved caspase-3 (IPF cell line ATCC-191; 10 μM): 1.43
- Uncleaved caspase-3 (IPF cell line ATCC-191; 10 μM): 78.84
- Cleaved caspase-3 (IPF cell line ATCC-191; 30 μM): 93.19
- Cleaved/Uncleaved caspase-3 (IPF cell line ATCC-191; 30 μM): 2.49
- Uncleaved caspase-3 (IPF cell line ATCC-191; 30 μM): 37.4
- Direct cytotoxic effects on cells (IPF cell line ATCC-191; 0.1-30 μM, in the absence of Fas): does not exert direct cytotoxic effects
- Increase of Ku70 acetylation (Ku70; Formula 6 1 μM, 16 h): about 80 fold
- Ku70 levels (anti-Ku70 immunoblot) (Ku70; Formula 6 1 μM, 16 h): without changing
- Ku70 acetylation, optical density ratio to GAPDH (OD), pan-acetyl IB of Ku70 IP (Ku70; Formula 6 1 μM, 16 h, ATCC-191, vehicle 0.007): 0.55 OD
- Inhibition of Ku70-deacetylation compared with CMH (Ku70; IPF-lung myofibroblasts): to a greater extent than CMH

Compound: COc1ccc(OCCCCC(=O)NO)cc1 [Formula 12]
- Decrease of FLIP levels (FLIP; Formula 12 1 μM): about twofold
- FLIP levels, optical density ratio to GAPDH (OD) (FLIP; Formula 12 1 μM, ATCC-191, vehicle 9.5, 13.3 and 8.4): 4.7 OD and 3.7 OD and 4.8 OD
